These results are taken from patent US7041698B2, “Hepatitis C virus inhibitors” (Bristol-Myers Squibb Company, priority 2002, dated 2006).

What all share (type): biochemical
In one experiment the target is T1, human liver cathepsin B (Homo sapiens, UniProt P07858).
T1 construct: purchased Sigma
Kind of experiment: Specificity assay, cathepsin B. The note with it: 2 hr pre-incubation at RT. As for the experimental part:
(§1) The specificities of compounds of the present invention were determined against a variety of serine proteases: human sputum elastase (HS), porcine pancreatic elastase (PPE) and human pancreatic chymotrypsin and one cysteine protease: human liver cathepsin B. In all cases a 96-well plate format protocol using calorimetric p-nitroaniline (pNA) substrate specific for each enzyme was used as described previously (Patent WO 00/09543) with some modifications to the serine protease assays. All enzymes were purchased from Sigma while the substrates were from Bachem.
(§2) Each assay included a 2 hr enzyme-inhibitor pre-incubation at RT followed by addition of substrate and hydrolysis to ˜30% conversion as measured on a Spectramax Pro microplate reader. Compound concentrations varied from 100 to 0.4 μM depending on their potency. […]
(§3) The percentage of inhibition was calculated using the formula: [1-((UVinh−UVblank)/(UVctl−UVblank))]×100 […]

Experiment [1] concerns the target T2, HCV NS3/4A protease complex (UniProt P27958, C1454S/C1711G, species not given).
T2 construct: fused on or other part: Three-lysine solubilising tail at the C-terminus of NS4A
Kind of experiment: Recombinant HCV NS3/4A protease complex FRET peptide assay (strain not stated). To be noted: read-out: IC50 range, HCV NS3/4A protease enzyme assay.

Experiment [2] concerns T3, human pancreatic chymotrypsin.
T3 construct: human pancreatic chymotrypsin
Kind of experiment: Specificity assay, chymotrypsin. The note with it: 2 hr pre-incubation at RT. Here is the method: as §1, §2, §3

The target in experiment [3] is T4, porcine pancreatic elastase (PPE) (Sus scrofa, UniProt P00772).
T4 construct: purchased Sigma
Briefly: Specificity assay, porcine pancreatic elastase. To be noted: 2 hr pre-incubation at RT. Here is the method: as §1, §2, §3

pIC50: −log10 of the molar value. Where only a bound is given, the exact number is not on record here.

T4 sequence (P00772 27-266): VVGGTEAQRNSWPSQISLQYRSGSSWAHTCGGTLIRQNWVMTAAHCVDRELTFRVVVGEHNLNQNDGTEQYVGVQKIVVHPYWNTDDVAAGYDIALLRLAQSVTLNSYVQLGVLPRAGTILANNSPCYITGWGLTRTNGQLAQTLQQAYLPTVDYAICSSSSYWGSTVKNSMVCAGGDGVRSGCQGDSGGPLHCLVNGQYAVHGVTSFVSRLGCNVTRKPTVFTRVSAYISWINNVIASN

In the case of `C=CC1C[C@]1(NC(=O)[C@@H]1C[C@@H](OC(=O)Nc2ccccc2-c2ccccc2)CN1C(=O)[C@@H](NC(=O)OC(C)(C)C)C(C)(C)C)C(=O)NS(=O)(=O)C1CC1` (stereo partly drawn) [Compound 8, BocNH-P3(t-BuGly)-P2(Hyp(O—CO(NH-biphen-2-yl)))-P1(1R,2S VinylAcca)—CONHSO2Cyclopropane], the pIC50 was below 4.00 on human liver cathepsin B, above 7.00 in experiment [1], below 4.00 in experiment [2] and below 4.00 in experiment [3].
